Patent publication US20140303092A1 (CHIMERIX, INC., priority 2011, published 2014)

Assay: Study HDP-CDV-201: safety and tolerability (adverse events, laboratory abnormalities, discontinuations)
Format: in vivo, human (adult allogeneic HSCT recipients)
Experimental: Clinical Studies of HDP-CDV were performed and described in detail in the following Examples. For example, HDP-CDV-201 is a placebo-controlled, dose-escalating trial in HSCT CMV (R+) recipients, evaluating the ability of HDP-CDV to prevent or control CMV infection was carried out. Five cohorts were established in which participants or subjects received either placebo or the HDP-CDV orally, in doses ranging from 40 mg weekly (QW) to 200 mg twice weekly (BIW). Subjects who were post-HSCT were enrolled at the time of engraftment and randomized to HDP-CDV or placebo (3 to 1 ratio) and received blinded therapy until approximately 100 day post-transplantation. HDP-CDV doses were 40 mg QW, 100 mg QW, 200 mg QW, 200 mg BIW and 100 mg BIW. Escalation to the next dose was decided by the data monitoring committee after review of the safety data from the previous Cohort. Subjects who developed CMV disease or CMV infection requiring pre-emptive therapy with local standard of care were discontinued from blinded therapy and followed for 4 weeks. Subjects who completed treatment with blinded therapy were followed for 8 weeks post-therapy.
Data from Study HDP-CDV-201 also provided characterization of the safety and tolerability profile of HDP-CDV when administered for the prevention or control of CMV infection in high risk (R^+) post-HSCT adult subjects.
The Safety population (SAFETY) included all randomized subjects who took at least one dose of study treatment. This population was used to summarize safety outcomes based on the treatment actually received, in cases where a subject was treated contrary to the randomization schedule.
The safety and tolerability profile of HDP-CDV, including subject demographics and Baseline characteristics; the AE profile; and laboratory abnormalities of interest were analyzed in the cohorts followed in this investigation.
Subjects completing the treatment period received a full course of study medication; those completing the entire study attended visits through 8 weeks of follow up. Subjects who discontinued treatment may have done so for protocol specified reasons (e.g. development of clinically significant CMV infection requiring preemptive treatment with excluded anti-CMV medications) or for other reasons (e.g., withdrawal, adverse events, loss to follow-up). The disposition of subjects in Study HDP-CDV-201 during the double-blind, placebo-controlled treatment period (through Week 11) is listed by dosing Cohort in TABLE 23.
Adverse events were examined by severity to ensure that all safety signals were identified in this study population. Because of the frequency of events in HSCT recipients, particular attention was given to evaluation of Grade 3 […], 4 (severe), and 5 (fatal) adverse events.
Only those preferred terms for which at least one Grade 3 or higher event was experienced in any treatment group are listed. Cytomegalovirus-related AEs are excluded from this analysis.
HDP-CDV is a lipid conjugate of CDV. Because CDV is known to have adverse effects on renal function and bone marrow, decreased GFR and persistent neutropenia were identified as AEs of special interest. Key renal and hematological (TABLE 30) laboratory parameters were measured and listed below by Study HDP-CDV-201 treatment groups. TABLE 30 includes abnormal levels of serum creatinine, neutrophils, platelets, WBCs, and hemoglobin and includes data at Screening and during the treatment period.
A common metric for unit based dosing of medications is by weight (mg/kg). When the distribution of weights was examined for all subjects participating in the study, the median was 78 kg and the lower 25th percentile weight was approximately 65 kg, which translates to a cut-off of ˜3 mg/kg for a 200 mg total weekly dose. Based upon this approach, a cut-off of 3 mg/kg was used to assess the frequency of diarrhea and associated GI AEs reported for the subjects in Cohorts 3 or 4a (TABLE 40).

[1] = Cohort 4A, 100 mg BIW, through Week 11

CCCCCCCCCCCCCCCCOCCCOP(=O)(O)COC(CO)Cn1ccc(N)nc1=O (stereo not shown) [HDP-CDV]
TEAE Cytomegalovirus viremia (Cohort 4A, 100 mg BIW, N = 50): 6 (12.0%) n (%)
TEAE Decreased appetite (Cohort 4A, 100 mg BIW, N = 50): 9 (18.0%) n (%)
TEAE Diarrhoea (Cohort 4A, 100 mg BIW, N = 50): 26 (52.0%) n (%)
TEAE Dysgeusia (Cohort 4A, 100 mg BIW, N = 50): 4 (8.0%) n (%)
TEAE Fatigue (Cohort 4A, 100 mg BIW, N = 50): 9 (18.0%) n (%)
TEAE GI Reflux Disease (Cohort 4A, 100 mg BIW, N = 50): 0 n (%)
TEAE Gamma-glutamyltransferase increased (Cohort 4A, 100 mg BIW, N = 50): 4 (8.0%) n (%)
TEAE Generalized oedema (Cohort 4A, 100 mg BIW, N = 50): 1 (2.0%) n (%)
TEAE Hyperbilirubinaemia (Cohort 4A, 100 mg BIW, N = 50): 3 (6.0%) n (%)
TEAE Hyperglycaemia (Cohort 4A, 100 mg BIW, N = 50): 9 (18.0%) n (%)
TEAE Hyperkalemia (Cohort 4A, 100 mg BIW, N = 50): 3 (6.0%) n (%)
TEAE Hypocalcaemia (Cohort 4A, 100 mg BIW, N = 50): 2 (4.0%) n (%)
TEAE Hypokalaemia (Cohort 4A, 100 mg BIW, N = 50): 8 (16.0%) n (%)
TEAE Hyponatraemia (Cohort 4A, 100 mg BIW, N = 50): 1 (2.0%) n (%)
TEAE Increased leukocytosis (Cohort 4A, 100 mg BIW, N = 50): 2 (4.0%) n (%)
TEAE Insomnia (Cohort 4A, 100 mg BIW, N = 50): 9 (18.0%) n (%)
TEAE Liver function test abnormal (Cohort 4A, 100 mg BIW, N = 50): 2 (4.0%) n (%)
TEAE Malnutrition (Cohort 4A, 100 mg BIW, N = 50): 1 (2.0%) n (%)
TEAE Nausea (Cohort 4A, 100 mg BIW, N = 50): 17 (34.0%) n (%)
TEAE Neutropenia (Cohort 4A, 100 mg BIW, N = 50): 10 (20.0%) n (%)
TEAE Oedema peripheral (Cohort 4A, 100 mg BIW, N = 50): 8 (16.0%) n (%)
TEAE Oral Candidiasis (Cohort 4A, 100 mg BIW, N = 50): 6 (12.0%) n (%)
TEAE Pneumonia (Cohort 4A, 100 mg BIW, N = 50): 5 (10.0%) n (%)
TEAE Pyrexia (Cohort 4A, 100 mg BIW, N = 50): 10 (20.0%) n (%)
TEAE Recurrent flatulence (Cohort 4A, 100 mg BIW, N = 50): 3 (6.0%) n (%)
TEAE Renal Failure (Cohort 4A, 100 mg BIW, N = 50): 5 (10.0%) n (%)
TEAE Staphylococcal Bacteremia (Cohort 4A, 100 mg BIW, N = 50): 6 (12.0%) n (%)
TEAE Thrombocytopenia (Cohort 4A, 100 mg BIW, N = 50): 7 (14.0%) n (%)
TEAE Tremor (Cohort 4A, 100 mg BIW, N = 50): 1 (2.0%) n (%)
TEAE Vomiting (Cohort 4A, 100 mg BIW, N = 50): 22 (44.0%) n (%)
Vomiting leading to study drug withdrawal (Cohort 4A, 100 mg BIW, N = 50): 1 (2.0%)
All AEs, Grade 5 (deaths) (Cohort 4A, 100 mg BIW, N = 50, entire study duration): 5 (10.0%)
Subjects completed treatment [1]: 30 (60.0%) n (%)
Subjects who permanently discontinued treatment [1]: 20 (40.0%) n (%)
Abnormal ALT >3-5x ULN, Any Time Between Week 2 and Week 10, subjects (Cohort 4A, >3.0 mg/kg/wk): 4 (40.0%)
Abnormal ALT >3-5x ULN, Screening, subjects (Cohort 4A, >3.0 mg/kg/wk): 0
Abnormal ALT >5-10x ULN, Any Time Between Week 2 and Week 10, subjects (Cohort 4A, >3.0 mg/kg/wk): 1 (10.0%)
Abnormal ALT >5-10x ULN, Screening, subjects (Cohort 4A, >3.0 mg/kg/wk): 0
Abnormal ALT >10-20x ULN, Any Time Between Week 2 and Week 10, subjects (Cohort 4A, >3.0 mg/kg/wk): 0
Abnormal ALT >10-20x ULN, Screening, subjects (Cohort 4A, >3.0 mg/kg/wk): 0
Abnormal ALT >20x ULN, Any Time Between Week 2 and Week 10, subjects (Cohort 4A, >3.0 mg/kg/wk): 1 (10.0%)
Abnormal ALT >20x ULN, Screening, subjects (Cohort 4A, >3.0 mg/kg/wk): 0
Abnormal ALT >3-5x ULN, Any Time Between Week 2 and Week 10, subjects (Cohort 4A, ≦3.0 mg/kg/wk): 6 (15.0%)
Abnormal ALT >3-5x ULN, Screening, subjects (Cohort 4A, ≦3.0 mg/kg/wk): 1 (2.8%)
Abnormal ALT >5-10x ULN, Any Time Between Week 2 and Week 10, subjects (Cohort 4A, ≦3.0 mg/kg/wk): 3 (7.5%)
Abnormal ALT >5-10x ULN, Screening, subjects (Cohort 4A, ≦3.0 mg/kg/wk): 1 (2.8%)
Abnormal ALT >10-20x ULN, Any Time Between Week 2 and Week 10, subjects (Cohort 4A, ≦3.0 mg/kg/wk): 1 (2.5%)
Abnormal ALT >10-20x ULN, Screening, subjects (Cohort 4A, ≦3.0 mg/kg/wk): 1 (2.8%)
Abnormal ALT >20x ULN, Any Time Between Week 2 and Week 10, subjects (Cohort 4A, ≦3.0 mg/kg/wk): 0
Abnormal ALT >20x ULN, Screening, subjects (Cohort 4A, ≦3.0 mg/kg/wk): 0
Grade of hepatobiliary AE cholecystitis, subject 4058 (Cohort 4a): 3
Grade of hepatobiliary AE hyperbilirubinemia, subject 4080 (Cohort 4a): 1
Grade of hepatobiliary AE hyperbilirubinemia, subject 4090 (Cohort 4a): 2
Grade of hepatobiliary AE worsening hyperbilirubinemia, subject 4109 (Cohort 4a): 1
Outcome of hepatobiliary AE cholecystitis, subject 4058 (Cohort 4a): recovered/resolved
